Source: patent US6962909B2, “Treatment of neovascularization disorders with squalimine” (Genaera Corporation, priority 1995, dated 2005)
Converted amounts (≈) assume the structure as drawn.

Assays:
C. albicans = experiment: Antibiotic activity, MIC; conditions: Candida albicans
E. coli = experiment: Antibiotic activity, MIC; type: cell-based; conditions: Escherichia coli
S. aureus = experiment: Antibiotic activity, MIC; type: cell-based; conditions: Staphylococcus aureus
P. aerug = experiment: Antibiotic activity, MIC
NHE2 = conditions: cited from earlier work
NHE3 = NHE3 (Rattus norvegicus, UniProt P26433); conditions: cited from earlier work
NHE1 = NHE1 (Homo sapiens, UniProt P19634); conditions: cited from earlier work
[1] = system: L1210 lymphoblastic leukemia cells; experiment: Mouse model of L1210 leukemia
Description: C57B mice were inoculated with L1210 lymphoblastic leukemia cells at an inoculum that causes leukemia in 100% of animals. Mice received compound 1436 at 1, 5, 10 mg/kg every 3 days intraperitoneally.
Of particular interest is the hematological profile determined during the course of treatment. Animals were treated with cisplatin and compound 1436.

[2] = system: PHA-stimulated human lymphocytes; experiment: Inhibition of mitogen-stimulated growth of human T-cells; type: cell-based; conditions: 72 hours
Description: Human heparinized blood, freshly collected, was introduced into tissue culture flasks containing 10 μg/ml phytohaemagglutinin (PHA) in RPMI medium with 10% FCS. Various purified steroids were introduced subsequently at concentrations of 1, 5, and 10 μg/ml. Cultures were incubated for 72 hours, after which time colcemid was added to 1 μg/ml. Cultures were maintained for an additional 2 hours, and cells collected. Mitotic figures were estimated using standard cytochemical techniques, following Giemsa staining.

[3] = system: Stage 59-60 Xenopus tadpoles; experiment: Xenopus tadpole assay; type: in vivo, Xenopus laevis; conditions: 10 μg/ml in water, about 1 hour
Excerpt: A newly developed assay employing tadpoles, preferably Xenopus laevis Stages 59-60, were employed to study the effect of a compound by monitoring capillary occlusion in the tadpole's tail. […] The compounds of the invention affect the shape, viability and integrity of the embryonic tissues while not affecting the adult tissues, providing a powerful, highly specific screen. For example, substances that destroy all of the animal's epithelium, both adult and embryonic, could be regarded as toxic.
In this assay, tadpoles are introduced into Petri dishes containing a solution of the test compound in distilled water, preferably about 100 ml. The preferred concentration of the test compound is from about 1 μg/ml to about 10 μg/ml. The volume of liquid is sufficient for the animal to swim freely and drink from the solution. Thus, the effect observed results from oral absorption and subsequent systemic distribution of the agent. If the volume of liquid is not sufficient to permit oral intake, the effects that are observed would result from absorption through the surface epithelium. Thus, this simple assay can identify if an compound has characteristics of oral availability.
After an amount of time, typically about 60 minutes, the occlusion of blood flow through capillaries in the tadpole's tail are observed under an inverted microscope at a magnification of roughly 100×.
The tadpole assay described above provides an advantageous way to determine the pharmacological targets of each steroid when introduced into a mammal, and to determine pharmacological categories into which synthetic compounds belong. In the assay, each of the steroids was dissolved in 100 ml of distilled water at a concentration of 10 μg/ml. Stage 59-60 Xenopus tadpoles were introduced and evaluated by light microscopy and gross observation 1 hour later.

[4] = system: vitelline capillaries of 3- to 5-day chick embryo; experiment: Chick embryo vitelline capillary regression assay; type: in vivo; set-up: key to Vascular reactivity (capillary regression): + = Vascular reactivity; 0 = No vascular reactivity; +/− = Equivocal reactivity
Description: Using the chick embryo vitelline capillaries assay, compounds were tested for their ability to induce capillary regression. Each compound was applied in 0.1 ml of 15% Ficol 400 and PBS onto the embryo, and vascular regression was assessed after 60 minutes.
The 3-day chick embryo consists of an embryonic disc from which numerous vessels emerge and return, forming a “figure 8”-shaped structure—the embryo in the center with vascular loops extending outward over both poles. […] Following a lag period of around 15 minutes, the constriction of continuity between capillary and secondary vessels, generally on the “venous” side, was observed. Continued pulsatile blood flow progressed, resulting in a “swelling” of the blind tube, followed by a pinching off of the remaining connection and formation of an enclosed vascular sac resembling a “blood island.” This process progressed until only the largest vessels remained intact.

[5] = system: human microvascular cells; experiment: Endothelial cord formation assay; type: cell-based
Excerpt: Endothelial cells have the capacity in vitro to form tubular aggregates resembling capillaries in various early stages of formation. This conversion occurs under relatively specific conditions, in which essential growth factors along with an effective substratum are provided. It has been shown that both the interaction of growth factors with the endothelial cell and its attachment to a substratum activate the NHE. The activation of this exchanger is believed to be required for subsequent morphologic transformation of the endothelial cell into a multicellular tubular structure.
To assess the effect of compounds on the cord-like structures formed by human microvascular cells when plated in the presence of VGEF (Vascular Endothelial Growth Factor) and basic fibroblast growth factor on a collagen matrix, a standard cord formation assay was used.

MTT (Table II) = type: cell-based
Excerpt: As set forth in Table II, which follows Table I, the activities of natural and synthetic aminosterols in the different assays vary. In light of the foregoing, it is now possible to screen for steroids with or without squalamine-like pharmacological activity.

[6] = mice with 5 × 10^5 L1210 cells ip, cisplatin 8 mg/kg ip, compound 1436 10 mg/kg ip q4d

Chain of NHE3 (P26433 29-831): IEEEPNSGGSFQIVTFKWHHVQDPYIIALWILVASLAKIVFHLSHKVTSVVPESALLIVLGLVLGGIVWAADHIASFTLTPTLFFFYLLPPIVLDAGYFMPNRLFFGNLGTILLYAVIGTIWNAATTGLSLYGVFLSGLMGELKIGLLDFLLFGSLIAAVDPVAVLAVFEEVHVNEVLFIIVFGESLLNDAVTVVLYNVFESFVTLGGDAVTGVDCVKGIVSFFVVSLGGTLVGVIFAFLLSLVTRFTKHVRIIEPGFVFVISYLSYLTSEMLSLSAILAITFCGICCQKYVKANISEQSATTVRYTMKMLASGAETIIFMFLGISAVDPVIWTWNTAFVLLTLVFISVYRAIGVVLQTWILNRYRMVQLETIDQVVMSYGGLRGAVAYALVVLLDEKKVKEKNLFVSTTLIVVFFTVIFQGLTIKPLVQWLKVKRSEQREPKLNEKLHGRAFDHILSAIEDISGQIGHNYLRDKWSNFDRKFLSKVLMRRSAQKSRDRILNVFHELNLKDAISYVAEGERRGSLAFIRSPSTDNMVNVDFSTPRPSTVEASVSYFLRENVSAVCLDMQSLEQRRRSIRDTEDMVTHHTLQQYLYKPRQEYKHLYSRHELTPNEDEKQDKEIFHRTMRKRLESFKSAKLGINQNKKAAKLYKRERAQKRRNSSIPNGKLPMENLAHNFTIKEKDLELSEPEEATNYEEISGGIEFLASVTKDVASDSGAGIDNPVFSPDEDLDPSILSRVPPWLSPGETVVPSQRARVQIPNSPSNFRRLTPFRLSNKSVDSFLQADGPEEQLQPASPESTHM
Chain of NHE1 (P19634 whole entry, species assumed): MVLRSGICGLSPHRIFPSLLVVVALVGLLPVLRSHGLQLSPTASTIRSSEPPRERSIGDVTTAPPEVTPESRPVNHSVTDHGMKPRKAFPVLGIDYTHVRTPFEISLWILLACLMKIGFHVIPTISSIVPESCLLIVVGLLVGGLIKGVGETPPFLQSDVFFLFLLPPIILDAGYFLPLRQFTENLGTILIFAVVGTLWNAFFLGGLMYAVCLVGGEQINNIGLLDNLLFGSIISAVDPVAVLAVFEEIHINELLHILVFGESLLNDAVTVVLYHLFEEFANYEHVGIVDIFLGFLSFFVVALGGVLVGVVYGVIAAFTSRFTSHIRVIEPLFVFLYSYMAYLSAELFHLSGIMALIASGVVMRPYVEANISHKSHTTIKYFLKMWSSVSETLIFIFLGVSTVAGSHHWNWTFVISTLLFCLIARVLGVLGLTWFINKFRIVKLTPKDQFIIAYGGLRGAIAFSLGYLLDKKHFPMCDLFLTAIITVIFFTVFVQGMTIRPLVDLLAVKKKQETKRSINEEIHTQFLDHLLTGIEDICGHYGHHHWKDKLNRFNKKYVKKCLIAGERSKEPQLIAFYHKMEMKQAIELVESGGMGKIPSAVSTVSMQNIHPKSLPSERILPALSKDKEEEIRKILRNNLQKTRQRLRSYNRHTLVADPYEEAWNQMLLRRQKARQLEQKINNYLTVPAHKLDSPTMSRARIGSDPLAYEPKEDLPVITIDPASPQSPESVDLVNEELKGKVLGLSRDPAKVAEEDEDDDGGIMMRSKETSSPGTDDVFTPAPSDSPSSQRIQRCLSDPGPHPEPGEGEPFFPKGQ

Compound | MIC (C. albicans) [µg/mL] | MIC (E. coli) [µg/mL] | MIC (S. aureus) [µg/mL] | MIC (P. aerug) [µg/mL] | also measured
CC(C)CCCC(C)[C@H]1CCC2C3CC[C@H]4C[C@H](NCCCCN)CC[C@]4(C)C3CC[C@@]21C (stereo partly shown) | 64 (≈ 139 µM) | > 256 | 4 (≈ 8.72 µM) | > 256 | 
CC(C)CCCC(C)[C@H]1CCC2C3CC[C@H]4C[C@@H](NCCCCN)CC[C@]4(C)C3CC[C@@]21C (stereo partly shown) | > 256 | > 256 | 16 (≈ 34.9 µM) | > 256 | 
CC(C)C(O)CCC(C)[C@H]1CCC2C3C(CC[C@@]21C)[C@@]1(C)CC[C@H](NCCCNCCCCN)C[C@@H]1C[C@H]3O (stereo partly shown) | 64 (≈ 117 µM) | 32 (≈ 58.4 µM) | 4 to 16 (≈ 7.3 to 29.2 µM) | 128 (≈ 234 µM) | 
CC(CCC(=O)O)[C@H]1CCC2C3C(CC[C@@]21C)[C@@]1(C)CC[C@@H](NCCCNCCCCN)C[C@@H]1C[C@H]3O (stereo partly shown) | 32 (≈ 61.6 µM) | 64 (≈ 123 µM) | 16 (≈ 30.8 µM) | 32 (≈ 61.6 µM) | 
CC(C)CCCC(C)[C@H]1CCC2C3CC[C@H]4C[C@H](NCCCN5CCCCN=C5N)CC[C@]4(C)C3CC[C@@]21C (stereo partly shown) | 32 (≈ 59.2 µM) | > 256 | 2 (≈ 3.7 µM) | > 256 | 
COC(=O)CCC(C)[C@H]1CCC2C3C(CC[C@@]21C)[C@@]1(C)CC[C@@H](NCCCNCCCCN)C[C@@H]1C[C@H]3O (stereo partly shown) | 32 (≈ 59.9 µM) | 64 (≈ 120 µM) | 4 (≈ 7.49 µM) | 64 (≈ 120 µM) | 
COC(=O)CCC(C)[C@H]1CCC2C3C(CC[C@@]21C)[C@@]1(C)CCC(NCCCNCCCCNCCCN)C[C@@H]1C[C@H]3O (stereo partly shown) | 64 (≈ 108 µM) | 32 (≈ 54.2 µM) | 4 (≈ 6.77 µM) | 64 (≈ 108 µM) | 
COC(O)CCC(C)[C@H]1CCC2C3C(CC[C@@]21C)[C@@]1(C)CC[C@H](NCCCNCCCCNCCCN)C[C@@H]1C[C@H]3O (stereo partly shown) | 16 (≈ 27 µM) | 64 (≈ 108 µM) | 2 to 4 (≈ 3.37 to 6.75 µM) | 128 (≈ 216 µM) | 
C[C@@H](O)C1CCC2C3CC[C@H]4C[C@@H](NCCCNCCCCN)CC[C@]4(C)C3CC[C@@]21C (stereo partly shown) | 64 (≈ 143 µM) | 32 to 64 (≈ 71.5 to 143 µM) | 4 (≈ 8.93 µM) | 256 (≈ 572 µM) | 
C[C@@H](O)C1CCC2C3CC[C@H]4C[C@H](NCCCNCCCCN)CC[C@]4(C)C3CC[C@@]21C (stereo partly shown) | 128 (≈ 286 µM) | 64 (≈ 143 µM) | 16 (≈ 35.7 µM) | 128 (≈ 286 µM) | 
CS(=O)(=O)c1cc(C(=O)NC(=N)N)ccc1N1CCCCC1 [(3-methylsulfonyl-4-piperidinobenzoyl) guanidine methanesulfonate] |  |  |  |  | Ki (NHE2): 5 µM; Ki (NHE3): 650 µM; Ki (NHE1): 0.16 µM
N=C(N)NC(=O)c1nc(Cl)c(N)nc1N [Amiloride] |  |  |  |  | Ki (NHE2): 3 µM; Ki (NHE3): 100 µM
N.N.[Cl][Pt][Cl] [Cisplatin, reference compound] |  |  |  |  | Hematological profile during treatment ([1]; by day 28): developed a profound anemia by day 28; RBC, Early Time [1, 6]: 9.4 10^6/mm^3; RBC, Late Time [1, 6]: 1.5 10^6/mm^3; WBC, Early Time [1, 6]: 8.1 10^3/mm^3; WBC, Late Time [1, 6]: 18.1 10^3/mm^3
CC(COS(=O)(=O)O)C(=O)CCC(C)[C@H]1CCC2C3C(CC[C@@]21C)[C@@]1(C)CC[C@H](NCCCNCCCCN)C[C@@H]1C[C@H]3O (stereo partly shown) [Compound 1360] |  |  |  |  | Inhibition of PHA-stimulated human lymphocytes ([2]; 1 μg/ml): 5 % control; Inhibition of PHA-stimulated human lymphocytes ([2]; 5 μg/ml): 5 % control; Inhibition of PHA-stimulated human lymphocytes ([2]; 10 μg/ml): 5 % control; Pharmacological response observed in tadpole [3]: Swelling and lysis of certain erythrocytes occurred, resulting in accumulation of nuclei within certain small vessels of the tail; Pharmacological response observed in tadpole ([3]; listed as compound 1360): extensive vasocclusion occurred within 60 minutes throughout the tail; Vascular reactivity (capillary regression) ([4]; 1 μg applied, 60 minutes): 0; Effect on blood circulating through the embryonic vessels ([4]; within 20 minutes of application): exhibited a brighter red color
CCCN(C)c1nc(N)c(C(=O)N=C(N)N)nc1Cl [MPA, methylpropylamiloride] |  |  |  |  | Ki (NHE2): 5 µM; Ki (NHE3): 10 µM; Ki (NHE1): 0.08 µM
CC(CC[C@@H](OS(=O)(=O)O)C(C)C)[C@H]1CCC2C3C(CC[C@@]21C)[C@@]1(C)CC[C@H](NCCCNCCCCN)C[C@@H]1C[C@H]3O (stereo partly shown) [drawing 43] | 8 (≈ 12.7 µM) | 2 to 4 (≈ 3.18 to 6.37 µM) | 0.5 to 1 (≈ 0.796 to 1.59 µM) | 16 (≈ 25.5 µM) | 
CC(C)CCCC(C)[C@H]1CCC2C3CC[C@H]4C[C@@H](NCCCNCCCCNCCCN)CC[C@]4(C)C3CC[C@@]21C (stereo partly shown) [drawing 47] | 32 (≈ 55.8 µM) | 128 (≈ 223 µM) | 16 (≈ 27.9 µM) | 64 (≈ 112 µM) | 
CC(COS(=O)(=O)O)C(=O)CCC(C)[C@H]1CCC2C3C(CC[C@@]21C)[C@@]1(C)CC[C@H](NCCCNCCCCN)C[C@@H]1C[C@H]3O (stereo partly shown) [drawing 63] | 32 (≈ 49.8 µM) | 128 (≈ 199 µM) | 8 (≈ 12.5 µM) | 128 (≈ 199 µM) | 
CC(C)CCCC(C)[C@H]1CCC2C3CC[C@H]4C[C@@H](NCCCNCCCCNCCCN)CC[C@]4(C)C3CC[C@@]21C (stereo partly shown) [drawing 96] |  |  |  |  | Cord Formation, Minimum Effective Concentration [5]: 10 µg/mL; MTT (MTT (Table II)): 19 µg/mL
CC(CC[C@@H](OS(=O)(=O)O)C(C)C)[C@H]1CCC2C3C(CC[C@@]21C)[C@@]1(C)CC[C@H](NCCCNCCCCN)C[C@@H]1C[C@H]3O (stereo partly shown) [drawing 164] |  |  |  |  | MTT (MTT (Table II)): 32 µg/mL
CC(CC[C@@H](OS(=O)(=O)O)C(C)C)[C@H]1CCC2C3C(CC[C@@]21C)[C@@]1(C)CC[C@H](NCCCNCCCCNCCCN)C[C@@H]1C[C@H]3O (stereo partly shown) [drawing 170] |  |  |  |  | MTT (MTT (Table II)): 67 µg/mL
dimethylamiloride [DMA] |  |  |  |  | Ki (NHE2): 0.7 µM; Ki (NHE3): 11 µM; Ki (NHE1): 0.1 µM
